In article PMC8861568, “Identification of (Z)-2-benzylidene-dihydroimidazothiazolone derivatives as tyrosinase inhibitors: Anti-melanogenic effects and in silico studies” (Computational and Structural Biotechnology Journal, 2022):
Entries after “also recorded” stand apart in the source; their conditions may differ.

Legend:
Format in all cases: cell-based, murine
B16F10 cells [1] = test: Extracellular melanin (melanin level in medium) of B16F10 cells; conditions: 48 h; for melanin levels in media compared with kojic acid: α-MSH + IBMX; for melanin levels in media: 5, 10, 20 μM, α-MSH 1 μM + IBMX 200 μM
Description: To determine whether melanin levels in cell culture media were influenced by compounds 1b or 1f, melanin contents in B16F10 cell culture media after treatments with derivatives at different concentrations in the presence of α -MSH and IBMX for 48 h were analyzed by measuring optical densities at 405 nm using a microplate reader.
(§1) The inhibitory effects of compounds 1b and 1f on intracellular melanin contents were investigated as previously described. B16F10 cells were seeded at a density of 1 × 10^5 cells/well in 6-well plates and incubated in a humidified 5% CO2 atmosphere for 24 h at 37 °C. […] For extracellular melanin contents, the optical density of the cell culture media was directly measured at 405 nm. On the other hand, for intracellular melanin contents, the following procedure was performed. Briefly, after washing twice with PBS, adherent cells were detached by incubation in Trypsin/EDTA for 1 min. Pellets were dissolved in 100 μL of 1 N NaOH and then incubated for 1 h at 60 °C to dissolve the melanin. Intracellular melanin was quantified by measuring optical densities at 405 nm using a microplate reader (VersaMax^TM, Molecular Devices, Sunnyvale, CA, USA). Results were normalized versus cell pellet total protein using BCA protein assay reagent using BSA as the standard (Thermo Scientific, Rockford, IL, USA). The intracellular melanin contents were calculated using the following equation: (ΔODsample/ΔODcontrol) × 100%; where ΔODsample = the optical density of the test compound, and ΔODcontrol = the optical density of control. Experiments were performed in triplicate.

B16F10 cells [2] = test: Cell viability, EZ-cytox assay; conditions: up to 20 μM, 48 h
Description: Before examining inhibitory effects of compounds 1b and 1f on cellular tyrosinase activity, we examined their cytotoxic effects on B16F10 murine cells using the EZ-cytox assay (Daeil Lab Service, Seoul, Korea). After B16F10 cells had been cultured for 24 h, cells were treated with different concentrations (0, 1, 2, 5, 10 or 20 μM) of 1b or 1f for 48 h in a humidified atmosphere. Optical densities (ODs) were measured at 450 nm using a microplate reader.
Cell viability assays were performed at 37 °C as previously described with minor modification using the EZ-cytox assay. In brief, B16F10 melanoma cells were seeded in 96-well plates at a density of 1 × 10^4 cells/well and incubated in a humidified 5% CO2 atmosphere for 24 h at 37 °C. Cells were then treated with compounds 1b or 1f at 0, 1, 2, 5, 10, or 20 µM/well for 48 h. EZ-cytox solution (10 µL) (Daeil Lab Service, Seoul, Korea) was then added to each well and incubated for 1 h at 37 °C. Cell viabilities were assessed by measuring absorbances at 450 nm using a microplate reader (VersaMax^TM, Molecular Devices, Sunnyvale, CA, USA). All experiments were independently conducted three times.

B16F10 cells [3] = test: Intracellular melanin content in B16F10 cells; conditions: 48 h; for intracellular melanin production compared with kojic acid: α-MSH + IBMX; for intracellular melanin production: 5, 10, 20 μM, α-MSH 1 μM + IBMX 200 μM
Description: To determine whether the inhibitory effects of compounds 1b and 1f on cellular TYR influence melanogenesis, cellular melanin production was measured. As was performed in TYR inhibition experiments, B16F10 cells co-stimulated with α -MSH and IBMX were used to compare the inhibitory effects of 1b and 1f on melanogenesis. Kojic acid was used as the positive control. […] Intracellular melanin contents were determined by measuring optical densities at 405 nm.
as §1

[4] = molecular target: T1, tyrosinase in B16F10 cells (Mus musculus, UniProt P11344); test: Cellular tyrosinase inhibition assay in B16F10 cells; conditions: 48 h; for cellular tyrosinase activity: 5, 10, 20 μM, α-MSH 1 μM + IBMX 200 μM
T1 construct: endogenous in cells; host or cells: B16F10 murine melanoma cells (ATCC), stimulated with alpha-MSH and IBMX
T1 sequence (P11344 19-533): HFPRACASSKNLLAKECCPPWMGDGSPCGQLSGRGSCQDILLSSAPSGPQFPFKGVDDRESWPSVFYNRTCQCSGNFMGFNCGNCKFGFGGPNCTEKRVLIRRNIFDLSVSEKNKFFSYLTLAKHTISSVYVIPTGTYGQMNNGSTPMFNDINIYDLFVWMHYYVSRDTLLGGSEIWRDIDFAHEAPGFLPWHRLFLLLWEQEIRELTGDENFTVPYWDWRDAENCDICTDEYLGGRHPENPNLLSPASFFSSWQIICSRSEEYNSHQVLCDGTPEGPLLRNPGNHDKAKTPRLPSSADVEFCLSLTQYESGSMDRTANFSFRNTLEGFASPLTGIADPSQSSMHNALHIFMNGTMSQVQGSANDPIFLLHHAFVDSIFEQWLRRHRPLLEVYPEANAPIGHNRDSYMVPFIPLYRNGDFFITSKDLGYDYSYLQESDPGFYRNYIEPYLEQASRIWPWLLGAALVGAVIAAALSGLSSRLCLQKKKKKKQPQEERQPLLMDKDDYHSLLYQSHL
Description: B16F10 cells co-stimulated with α -melanocyte-stimulating hormone (α -MSH) and 3-isobutyl-1-methylxanthine (IBMX) were used to investigate the inhibitory effects of compounds 1b and 1f on mammal cellular tyrosinase. Kojic acid was used as the positive control. […] Cellular tyrosinase activities were determined by measuring optical densities at 492 nm.
Cellular tyrosinase inhibition assays were conducted as previously described with minor modification. B16F10 cells were seeded at a density of 1 × 10^5 cells/well in 6-well plates and incubated in a humidified 5% CO2 atmosphere for 24 h at 37 °C. […] Cells were then washed twice with PBS, lysed by adding 45 mM of phosphate buffer (100 µL) containing 1% Triton X-100 (5 µL) and 1% PMSF (5 µL, phenylmethylsulfonyl fluoride) and frozen at −80 °C for 1 h. Lysates were clarified by centrifugation at 12,000 rpm for 30 min at 4 °C. Cell lysate supernatants (80 µL/well) in a 96-well plate were then mixed with 20 µL of L-DOPA (2 mg/mL in distilled water) and incubated for 30 min at 37 °C. Absorbances of reaction mixtures at 492 nm were recorded using a microplate reader (VersaMax^TM, Molecular Devices, Sunnyvale, CA, USA). Kojic acid was used as the positive control. Protein concentrations were determined using Bicinchoninic Acid (BCA) protein assay reagent using Bovine Serum Albumin (BSA) as the standard (Thermo Scientific, Rockford, IL, USA). All experiments were independently conducted three times.

Row | SMILES | melanin levels in media compared with kojic acid (B16F10 cells [1]; 1f at 20 μM) | melanin levels in media (B16F10 cells [1]) | cytotoxic effect on B16F10 cells (B16F10 cells [2]) | intracellular melanin production compared with kojic acid (B16F10 cells [3]; 1f at 20 μM, kojic acid 20 μM) | intracellular melanin production (B16F10 cells [3]) | cellular tyrosinase activity [4] | melanin levels in media compared with kojic acid (B16F10 cells [1]; 1b at 5 μM) | intracellular melanin production compared with kojic acid (B16F10 cells [3]; 1b at 5 μM) | cellular tyrosinase inhibition compared with kojic acid ([4]; 1b at 10 μM, α-MSH + IBMX)
1 | COc1ccc(/C=c2\sc3n(c2=O)CCN=3)cc1O [Compound 1f, (Z)-2-(3-Hydroxy-4-methoxybenzylidene)-5,6-dihydroimidazo[2,1-b]thiazol-3(2H)-one] | suppressed these increases more than kojic acid at 20 μM | significantly and concentration-dependently suppressed these increases | without perceptible cytotoxicity; also recorded: Neither 1b nor 1f had a significant cytotoxic effect | stronger inhibitory effect on melanogenesis than kojic acid | significantly and concentration-dependently suppressed this increase | significantly and concentration-dependently reduced this increase in tyrosinase activity | – | – | –
2 | O=c1/c(=C/c2ccc(O)cc2O)sc2n1CCN=2 [Compound 1b, (Z)-2-(2,4-Dihydroxybenzylidene)-5,6-dihydroimidazo[2,1-b]thiazol-3(2H)-one] | – | significantly and concentration-dependently suppressed these increases | without perceptible cytotoxicity; also recorded: Neither 1b nor 1f had a significant cytotoxic effect | – | significantly and concentration-dependently suppressed this increase | significantly and concentration-dependently reduced this increase in tyrosinase activity | suppressed these increases more than kojic acid at 20 μM | by the same extent as kojic acid at 20 μM | to the same extent as compound 1f or kojic acid at 20 μM
